From publication doi:10.1101/679977v1 (bioRxiv, 2019)
Square brackets hold non-standard residues; d marks the D form. Ends that are not written are not given here. Peptide text beside a SMILES is read from it.

Experiments:
Assay type in all cases: cell-based
[1] = test system: E. coli; test: Geometric mean of MICs, selectivity and targeting indices; settings: for TI Beneficial strains (targeting index): GM(E. coli)/GM(beneficial strains); for TI Beneficial strains (targeting index) / TI Pathogenic strains (targeting index): smaller = greater specificity; for TI Pathogenic strains (targeting index): GM(E. coli)/GM(other pathogenic strains); for SI E. coli (selectivity index): MHC/GM (E. coli), MHC >128 counted as 256 μM, larger = greater cell selectivity; for TI All (TIall, targeting index): all strains, smaller = greater specificity for E. coli; for GM E. coli: geometric mean of MICs against the 6 E. coli strains, >128 counted as 256 μM
[2] = test system: Beneficial strains; test: Geometric mean of MICs; settings: geometric mean of MICs against beneficial strains; >128 counted as 256 μM
[3] = test system: E. coli ATCC25922; test: Salt, serum, acid and alkaline sensitivity; settings: for MIC, Control: absence of physiological salts, serum, acid and alkaline; for MIC, FeCl3: in presence of 4μM FeCl3 (final); for MIC, MgCl2: in presence of 1 mM MgCl2; for MIC, KCl: in presence of 4.5 mM KCl (final); for MIC, NaCl: in presence of 150 mM NaCl (final); for MIC, PH=2: peptide incubated at pH=2 for 4 h prior to MIC determination; for MIC, PH=4: peptide incubated at pH=4 for 4 h prior to MIC determination; for MIC, PH=10: peptide incubated at pH=10 for 4 h prior to MIC determination; for MIC, PH=12: peptide incubated at pH=12 for 4 h prior to MIC determination

Compound | TI Beneficial strains (targeting index) [1] | TI Pathogenic strains (targeting index) [1] | SI E. coli (selectivity index) [1] | TI All (TIall, targeting index) [1] | GM E. coli [1] | GM Beneficial strains [2] | MIC, Control [3] | MIC, FeCl3 [3] | MIC, MgCl2 [3] | MIC, KCl [3] | MIC, NaCl [3] | MIC, PH=2 [3] | MIC, PH=4 [3] | MIC, PH=10 [3] | MIC, PH=12 [3]
CC[C@H](C)[C@H](NC(=O)CNC(=O)[C@H]1CCCN1C(=O)[C@H](CCCCN)NC(=O)[C@H](Cc1c[nH]c2ccccc12)NC(=O)[C@@H](NC(=O)[C@H](CCCCN)NC(=O)[C@H](CCCCN)NC(=O)[C@H](Cc1c[nH]c2ccccc12)NC(=O)CNC(=O)CNC(=O)CNC(=O)[C@H](C)NC(=O)[C@H](CO)NC(=O)[C@H](CC(C)C)NC(=O)[C@H](CCCNC(=N)N)NC(=O)[C@@H](NC(=O)[C@H](CCCNC(=N)N)NC(=O)[C@@H]1CCCN1C(=O)[C@H](CCCNC(=N)N)NC(=O)[C@H](CCCCN)NC(=O)[C@@H](N)CCC(N)=O)C(C)C)[C@@H](C)CC)C(=O)N[C@@H](CCCCN)C(=O)N[C@@H](CCCCN)C(=O)N[C@@H](Cc1c[nH]c2ccccc12)C(=O)N[C@H](C(=O)N[C@@H](CCCCN)C(=O)O)[C@@H](C)CC [Peptide 12] (H-QKRPRVRLSAGGGWKKIWK[dP]GIKKWIK-OH; N-terminus and C-terminus assumed) | 0.031 | 0.039 | 32.000 | 0.035 | 8.000 µM | 256.000 µM | 8 µM | 8 µM | 32 µM | 8 µM | >64 µM | 16 µM | 8 µM | 16 µM | 16 µM
QKRPRVRLSA [Peptide 14, reference compound] | 0.397 | 0.397 | 2.520 | 0.397 | 101.594 µM | 256.000 µM | 64 µM | >64 µM | >64 µM | >64 µM | >64 µM | 64 µM | >64 µM | >64 µM | 64 µM
CC[C@H](C)[C@H](NC(=O)CNC(=O)[C@H]1CCCN1C(=O)[C@H](CCCCN)NC(=O)[C@H](Cc1c[nH]c2ccccc12)NC(=O)[C@@H](NC(=O)[C@@H](N)CCCCN)[C@@H](C)CC)C(=O)N[C@@H](CCCCN)C(=O)N[C@@H](CCCCN)C(=O)N[C@@H](Cc1c[nH]c2ccccc12)C(=O)O [Peptide 1] (H-KIWK[dP]GIKKW-OH; N-terminus and C-terminus assumed) | 1.000 | 1.000 | 1.000 | 1.000 | 256.000 µM | 256.000 µM | >64 µM | >64 µM | >64 µM | >64 µM | >64 µM | >64 µM | >64 µM | >64 µM | >64 µM
CC[C@H](C)[C@H](NC(=O)CNC(=O)[C@H]1CCCN1C(=O)[C@H](CCCCN)NC(=O)[C@H](Cc1c[nH]c2ccccc12)NC(=O)[C@@H](NC(=O)[C@H](CCCCN)NC(=O)[C@H](CCCCN)NC(=O)[C@H](Cc1c[nH]c2ccccc12)NC(=O)[C@@H](NC(=O)[C@@H](N)CCCCN)[C@@H](C)CC)[C@@H](C)CC)C(=O)N[C@@H](CCCCN)C(=O)N[C@@H](CCCCN)C(=O)N[C@@H](Cc1c[nH]c2ccccc12)C(=O)N[C@H](C(=O)N[C@@H](CCCCN)C(=O)N[C@@H](CCCCN)C(=O)N[C@@H](Cc1c[nH]c2ccccc12)C(=O)O)[C@@H](C)CC [Peptide 3] (H-KIWKKIWK[dP]GIKKWIKKW-OH; N-terminus and C-terminus assumed) | 0.011 | 0.079 | 90.523 |  | 2.828 µM | 256.000 µM | 4 µM | 4 µM | 8 µM | 4 µM | 16 µM | 4 µM | 4 µM | 4 µM | 4 µM
CC[C@H](C)[C@H](NC(=O)CNC(=O)[C@H]1CCCN1C(=O)[C@H](CCCCN)NC(=O)[C@H](Cc1c[nH]c2ccccc12)NC(=O)[C@@H](NC(=O)[C@H](CCCCN)NC(=O)[C@@H](NC(=O)[C@@H](N)Cc1c[nH]c2ccccc12)[C@@H](C)CC)[C@@H](C)CC)C(=O)N[C@@H](CCCCN)C(=O)N[C@@H](CCCCN)C(=O)N[C@@H](Cc1c[nH]c2ccccc12)C(=O)N[C@H](C(=O)N[C@@H](CCCCN)C(=O)O)[C@@H](C)CC [Peptide 7] (H-WIKIWK[dP]GIKKWIK-OH; N-terminus and C-terminus assumed) | 0.099 | 0.111 | 10.080 | 0.105 | 25.398 µM | 256.000 µM | 32 µM | 32 µM | >64 µM | 32 µM | >64 µM | 32 µM | 32 µM | 32 µM | 32 µM
CC[C@H](C)[C@H](NC(=O)CN)C(=O)NCC(=O)N[C@@H](C)C(=O)N[C@H](C(=O)N[C@@H](CC(C)C)C(=O)N[C@@H](CCCCN)C(=O)N[C@H](C(=O)N[C@@H](CC(C)C)C(=O)N[C@H](C(=O)N[C@H](C(=O)NCC(=O)N[C@@H](CC(C)C)C(=O)N1CCC[C@H]1C(=O)N[C@@H](C)C(=O)N[C@@H](CC(C)C)C(=O)N[C@H](C(=O)N[C@@H](CO)C(=O)N[C@@H](Cc1c[nH]c2ccccc12)C(=O)N[C@H](C(=O)N[C@@H](CCCCN)C(=O)N[C@@H](CCCNC(=N)N)C(=O)N[C@@H](CCCCN)C(=O)N[C@@H](CCCNC(=N)N)C(=O)N[C@@H](CCC(N)=O)C(=O)N[C@@H](CCC(N)=O)C(N)=O)[C@@H](C)CC)[C@@H](C)CC)[C@@H](C)O)[C@@H](C)O)C(C)C)C(C)C [MLT, Melittin, reference compound] | 1.122 | 0.630 | 0.794 | 0.876 | 2.520 µM | 2.245 µM |  |  |  |  |  |  |  |  | 
CC[C@H](C)[C@H](NC(=O)CNC(=O)[C@H]1CCCN1C(=O)[C@H](CCCCN)NC(=O)[C@H](Cc1c[nH]c2ccccc12)NC(=O)[C@@H](NC(=O)[C@H](CCCCN)NC(=O)[C@H](CCCCN)NC(=O)[C@@H](N)Cc1c[nH]c2ccccc12)[C@@H](C)CC)C(=O)N[C@@H](CCCCN)C(=O)N[C@@H](CCCCN)C(=O)N[C@@H](Cc1c[nH]c2ccccc12)C(=O)N[C@H](C(=O)N[C@@H](CCCCN)C(=O)NCC(=O)NCC(=O)NCC(=O)N[C@@H](CCCCN)C(=O)O)[C@@H](C)CC [Peptide 5] (H-WKKIWK[dP]GIKKWIKGGGK-OH; N-terminus and C-terminus assumed) | 0.044 | 0.050 | 22.627 | 0.047 | 11.314 µM | 256.000 µM | 8 µM | 8 µM | 32 µM | 8 µM | >64 µM | 32 µM | 32 µM | 16 µM | 16 µM
CC[C@H](C)[C@H](NC(=O)CNC(=O)[C@H]1CCCN1C(=O)[C@H](CCCCN)NC(=O)[C@H](Cc1c[nH]c2ccccc12)NC(=O)[C@@H](NC(=O)[C@H](CCCCN)NC(=O)[C@H](CCCCN)NC(=O)[C@@H](N)Cc1c[nH]c2ccccc12)[C@@H](C)CC)C(=O)N[C@@H](CCCCN)C(=O)N[C@@H](CCCCN)C(=O)N[C@@H](Cc1c[nH]c2ccccc12)C(=O)N[C@H](C(=O)N[C@@H](CCCCN)C(=O)O)[C@@H](C)CC [Peptide 2] (H-WKKIWK[dP]GIKKWIK-OH; N-terminus and C-terminus assumed) | 0.063 | 0.070 | 16.000 | 0.067 | 16.000 µM | 256.000 µM | 16 µM | 16 µM | 32 µM | 16 µM | >64 µM | 32 µM | 16 µM | 16 µM | 32 µM
